Experimental data from the OPERA property sets (Mansouri et al. 2018).

Settings: not given
With `BrC1CCC(Br)C(Br)CCC(Br)C(Br)CCC1Br` (configuration not stated) the log10 vapour pressure (mmHg) was -6.33 and the ready biodegradability was “not readily biodegradable”. Work on `C=CCn1c(N)cc(=O)n(CC)c1=O` yielded a melting point of 143 °C. In the case of `O=Cc1ccc2ccccc2n1`, the melting point is reported as 71 °C. For `NCCc1c[nH]c2ccc(O)cc12`, the melting point was 168 °C. Compound `C1CCC2(CC1)CCCCC2` has a boiling point of 207 °C. In the case of `C=Cc1ccccc1C`, the boiling point is reported as 170 °C, the log10 vapour pressure (mmHg) is reported as 0.268 and the melting point is reported as -68.5 °C. In the case of `CC(C)(C)N=C=S`, the boiling point is reported as 140 °C and the melting point is reported as 10.5 °C. For `CCCCc1cc2ccccc2c(OCCN(C)C)n1`, the melting point was 146 °C. In the case of `c1ccc(-c2ccc3ccccc3n2)cc1`, the boiling point is reported as 363 °C and the melting point is reported as 86 °C. `Cc1ccc(CN)cc1` showed a boiling point of 195 °C and a melting point of 12.5 °C. `CCSCCSP(=S)(OC)OC` showed a log10 vapour pressure (mmHg) of -4.77. Work on `Cc1ccc2cnccc2c1` yielded a boiling point of 266 °C and a melting point of 85.5 °C. Compound `O=S(=O)(c1ccccc1)c1ccc(Cl)cc1` has a melting point of 94 °C. With `Nc1c(O)cccc1[N+](=O)[O-]` the melting point was 216 °C. Compound `CCNCCN(C)C` has a boiling point of 134 °C. With `C[C@]12CC[C@H](O)C[C@H]1CC[C@@H]1[C@@H]2[C@H](O)C[C@]2(C)[C@@H](c3ccc(=O)oc3)CC[C@]12O` the melting point was 254 °C. `C(=Nc1ccccc1)Nc1ccccc1` gave a melting point of 142 °C. Work on `CCCCc1ccccc1O` yielded a boiling point of 235 °C, a log10 vapour pressure (mmHg) of -1.99 and a melting point of -20 °C. For `BrCCI`, the boiling point was 163 °C and the melting point was 28 °C. Compound `CC(C)N` has a boiling point of 31.7 °C, a log10 vapour pressure (mmHg) of 2.76 and a melting point of -95.1 °C. Work on `C1=CCCCC=C1` yielded a boiling point of 120 °C and a melting point of -110 °C. With `Cc1ccc(O)cc1` the boiling point was 202 °C, the log10 Henry constant (atm·m³/mol) was -6 and the log10 Koc (L/kg) was 2.7. For the same compound, the log10 vapour pressure (mmHg) was -0.959, the melting point was 35.5 °C and the ready biodegradability was “readily biodegradable”. In the case of `CCOC(=O)c1ccccc1Br`, the boiling point is reported as 254 °C. `C[C@H](CS)C(=O)N1CCC[C@H]1C(=O)O` showed a melting point of 106 °C. Compound `O=CN(O)CC(=O)O` has a melting point of 120 °C. With `CCC1(C)OC(=O)NC1=O` (configuration not stated) the melting point was 46 °C. Work on `CC(C)CO[N+](=O)[O-]` yielded a boiling point of 123 °C, a log10 Henry constant (atm·m³/mol) of -2.65 and a log10 vapour pressure (mmHg) of 0.919. `CC(Cl)CCCl` (configuration not stated) gave a boiling point of 134 °C. With `Cc1cccnn1` the boiling point was 214 °C and the melting point was 184 °C. For `Nc1ccc(S(=O)(=O)c2ccc(NCCO)cc2)cc1`, the melting point was 131 °C. In the case of `Cc1c(Cl)cc(-c2ccc(O)nn2)cc1Cl`, the melting point is reported as 252 °C. For `Cc1cc(C(C)(C)C)c(O)c(C)c1CC1=NCCN1`, the melting point was 182 °C. `ClC(Br)C(Cl)Br` (configuration not stated) gave a boiling point of 195 °C and a melting point of -26 °C. In the case of `O=C(O)CCC(=O)Nc1ccc(S(=O)(=O)Nc2nccs2)cc1`, the melting point is reported as 194 °C. `Cc1ccc(C(=O)O)c(C)c1` gave a boiling point of 268 °C and a melting point of 90 °C. `Nc1ccc2c(c1)Cc1cc(N)ccc1-2` gave a melting point of 166 °C. Work on `FC(F)(F)Oc1ccccc1` yielded a boiling point of 102 °C and a melting point of -50 °C. In the case of `Clc1ccc(Cl)c(Cl)c1`, the boiling point is reported as 214 °C, the log10 Henry constant (atm·m³/mol) is reported as -2.85 and the log10 Koa is reported as 4.95. The log10 Koc (L/kg) was 3.1, the log10 vapour pressure (mmHg) was -0.337 and the melting point was 17 °C. For the same compound, the ready biodegradability was “not readily biodegradable”. With `CC(C)=CCN1CC[C@@]2(C)c3cc(O)ccc3C[C@@H]1[C@@H]2C` the melting point was 146 °C. With `Cn1sc(Cl)cc1=O` the ready biodegradability was “not readily biodegradable”. With `CC(C)=CCC[C@@H](C)CC=O` the boiling point was 207 °C. In the case of `Cc1c(Cl)cc(Cl)c(O)c1Cl`, the boiling point is reported as 265 °C and the melting point is reported as 46 °C. In the case of `COc1cc(Cl)ccc1N`, the boiling point is reported as 260 °C and the melting point is reported as 52 °C. With `CN1CCC(N(Cc2ccccc2)c2ccccc2)CC1` the melting point was 115 °C. In the case of `COc1cc(Cc2cnc(N)nc2N)cc(OC)c1Br`, the melting point is reported as 226 °C. `Nc1nc(F)nc2c1ncn2[C@@H]1O[C@H](CO)[C@@H](O)[C@@H]1O` gave a melting point of 260 °C. `C=CC(=O)CC` gave a boiling point of 103 °C. `C=C(C)C(=C)C` showed a boiling point of 68.8 °C, a log10 vapour pressure (mmHg) of 2.18 and a melting point of -76 °C. `CCCCCCCCCCCl` showed a boiling point of 223 °C, a log10 vapour pressure (mmHg) of -2.01 and a melting point of -31.3 °C. In the case of `CCC`, the boiling point is reported as -42.1 °C, the log10 Koa is reported as 0.97 and the log10 vapour pressure (mmHg) is reported as 3.85. For the same compound, the melting point was -188 °C and the ready biodegradability was “readily biodegradable”. Compound `CC(C)CC=O` has a boiling point of 92.5 °C, a log10 vapour pressure (mmHg) of 1.7 and a melting point of -51 °C. For `O=C(Oc1ccccc1)c1ccccc1C(=O)Oc1ccccc1`, the melting point was 73 °C. For `C=COC(C)=O`, the boiling point was 72.5 °C, the log10 vapour pressure (mmHg) was 1.96 and the melting point was -93.2 °C. The ready biodegradability was “readily biodegradable”. For `CCCOCC`, the boiling point was 63.2 °C, the log10 vapour pressure (mmHg) was 2.26 and the melting point was -128 °C. Work on `CCCCCCC=O` yielded a boiling point of 153 °C, a log10 Henry constant (atm·m³/mol) of -3.57 and a log10 vapour pressure (mmHg) of 0.546. For the same compound, the melting point was -43.3 °C. Compound `CC1CC(C)(C)CCC1=O` (configuration not stated) has a boiling point of 191 °C. `c1ccc(N(c2ccccc2)c2ccccc2)cc1` gave a boiling point of 365 °C, a log10 Koc (L/kg) of 2.26 and a melting point of 127 °C. `C=CCC1(C(C)C)C(=O)NC(=O)N(C)C1=O` (configuration not stated) gave a melting point of 56.5 °C.

Same assay, conditions: fish
`C=Cc1ccc(CC)cc1` gave a log10 BCF of 2.69. For `COc1ccc(C)cc1N`, the log10 BCF was 0.55 and the log10 biotransformation half-life (days) was -1. Compound `Brc1cc(Br)c(Oc2ccc(Br)c(Br)c2)c(Br)c1` has a log10 BCF of 6.29. Compound `Clc1cc(-c2c(Cl)c(Cl)cc(Cl)c2Cl)c(Cl)c(Cl)c1Cl` has a log10 biotransformation half-life (days) of 2.47. `Clc1ccc(-c2cc(Cl)ccc2Cl)cc1` showed a log10 BCF of 4.13 and a log10 biotransformation half-life (days) of 1.91. For `CCCCCCCCC(C)C`, the log10 biotransformation half-life (days) was 0.1. In the case of `Cc1c(Cl)cccc1[N+](=O)[O-]`, the log10 BCF is reported as 1.99. `N#Cc1ccc(O)cc1` showed a log10 BCF of 0.91. For `Clc1ccc(Cl)c(Cl)c1`, the log10 BCF was 3.32 and the log10 biotransformation half-life (days) was 1.2.
